In patent US12036246B2, “Compositions and methods for enhancing cancer chemotherapy” (priority 2017, dated 2024):

Legend:
[1] = tested on: proliferative index marker; assay: Proliferative index marker in mammary gland tumors by immunocytochemistry; format: in vivo, murine; settings: FIG. 11
Source text: The effects of a nutritional supplement that includes fish oil and selenium in combination with chemotherapeutic drugs were also identified in in vivo studies, where the Ki-61 proliferative index marker was identified in mammary gland tumors of murine models by immunocytochemistry.

breast cancer cells = assay: Metastatic tumor load in mammary glands, animals implanted with breast cancer cells; format: in vivo; settings: FIG. 65
p-AXL = assay: Western blot of p-AXL in tumors, animal models of triple negative human breast cancer; format: in vivo; settings: FIG. 112
Cytochrome C = assay: Western blot of Cytochrome C in tumors; format: in vivo; settings: FIG. 38
Source text: Results of similar studies directed to Bc1-2, p-Bc1-2, and Caspase 3 are shown in FIG. 36; results for similar studies directed to Caspase 8 are shown in FIG. 37. […] These effects are enhanced, in several instances synergistically, when a nutritional supplement containing fish oil and selenium is used in combination with a chemotherapeutic drug.

[2] = tested on: A549 lung cancer sphere cells; assay: Cell cycle phase distribution of A549 sphere cells; format: cell-based; settings: Alimta 1 μM, Tarceva 5 μM, fish oil 75 μM, selenium 300 ng/mL
A549 lung cancer cells = assay: Cell cycle phase distribution of A549 tumor cells; format: cell-based; settings: selenium 300 ng/mL, fish oil 75 μM (DHA content), Alimta 1 μM, Tarceva 5 μM
[3] = tested on: MDA-MB-231 breast cancer sphere cells; assay: Proliferation of MDA-MB-231 sphere cells; format: cell-based; settings: FIG. 45-46
[4] = tested on: MDA-MB-231 breast cancer sphere cells; assay: Cell cycle phase distribution, Cisplatin / selenium / fish oil (Table 4); format: cell-based; settings: selenium 500 ng/mL, fish oil 75 μM (DHA content), Cisplatin 5 μg/mL
[5] = tested on: triple-negative breast cancer cell line (MDA-MB-231); assay: Proliferation of MDA-MB-231 breast cancer cells; format: cell-based; settings: 72 hours, FIG. 8-9
HCC827Gr cells [6] = assay: Colony formation by resistant HCC827Gr cells; format: cell-based, human; settings: 0.5 μM Iressa, FIG. 59-60
AXL = assay: Western blot of AXL in drug resistant HCC827GR cells; format: cell-based, human; settings: Iressa 1 μM, FIG. 105, 108
lung cancer cells [7] = assay: Tumor weight in mice implanted with lung cancer cells, Iressa; format: in vivo
[8] = tested on: drug resistant HCC827Gr lung cancer cells; assay: Proliferation of drug resistant HCC827Gr cells; format: cell-based, human
HCC827Gr cells [9] = assay: Viable resistant HCC827Gr cells in culture; format: cell-based, human; settings: FIG. 54
[10] = tested on: Iressa-resistant HCC827GR cells; assay: Cell cycle phase distribution of Iressa-resistant cells, co-treatment; format: cell-based, human; settings: Iressa 1 μM
PD-1 = PD-1 in T cells of animal models; format: in vivo; settings: FIG. 70-72
A549 sphere cells = assay: Proliferation of A549 sphere cells; format: cell-based; settings: FIG. 43-44
lung cancer cells [11] = assay: Metastasis from implantation site of lung cancer cells; format: in vivo, mice; settings: FIG. 63
implanted tumor = settings: 28 days after tumor implantation, FIG. 13
Source text: 8A provides an example of a typical testing protocol for such a nutritional supplement (“Nutrawell”) and the chemotherapeutic drug Tarceva. As shown, 28 days after tumor implantation mice were sacrificed and the tumor characterized.

IL-6 = IL-6 expression in tumors; settings: FIG. 77
[12] = Loss of adipose tissue and muscle mass in tumor bearing mice; format: in vivo; settings: FIG. 75
Source text: Individuals with cancer frequently present with weight loss, due to loss of fatty tissue and muscle wasting (cachexis). This weight loss can result in serious health issues in addition to those resulting directly from tumor growth and progression. […] Mice having tumors, with or without treatment with chemotherapeutic agents also experience cachexis.

PTHrP = PTHrP expression in tumors; format: in vivo; settings: FIG. 77, FIG. 89
UCP-1 = UCP-1 expression in animal models of human cancer; format: in vivo; settings: FIG. 89
Source text: (§1) As shown in FIG. 89 (lower left panel), expression of UCP-1 and ATGL is increases in tumor tissue (T) relative to non-tumor tissue (NT).

HSP90 = assay: Western blot of HSP90 in tumors, animal models of triple negative human breast cancer; format: in vivo; settings: FIG. 111
Procedure: Studies of the effect of a nutritional supplement containing fish oil and selenium, both alone and in combination with chemotherapeutic agents, were also studied using in vivo animal models of triple negative human breast cancer. Animals were treated with a nutritional supplement containing fish oil and selenium (for example, a formulation as described in Table 1), Taxol (“tax”), Adriamycin (“adyri”), Avastin, or a combination of the nutritional supplement and individual chemotherapeutic agents.

ATGL = ATGL expression in animal models of human cancer; format: in vivo; settings: FIG. 89
Source text: as §1

[13] = tested on: vascularization of tumors; assay: Tumor-associated blood vessels in murine models of breast cancer; format: in vivo, mice; settings: FIG. 24-31
Procedure: In an exemplary study mice were treated as shown in the scheme depicted in FIG. 23.

## COc1cccc2c1C(=O)c1c(O)c3c(c(O)c1C2=O)C[C@@](O)(C(=O)CO)C[C@@H]3O[C@H]1C[C@H](N)[C@H](O)[C@H](C)O1 [Adriamycin, doxorubicin]
[1]
  number of Ki-61 positive cells (proliferative index): reduces the number of positive cells
Breast cancer cells
  metastatic tumor load in the mammary glands: more effective than Taxol in reducing metastatic tumor load
p-AXL
  p-AXL content of the tumor: little to no apparent reduction in p-AXL expression
Cytochrome C
  Cytochrome C: little to no increase

## Nc1nc2[nH]cc(CCc3ccc(C(=O)N[C@@H](CCC(=O)O)C(=O)O)cc3)c2c(=O)[nH]1 [Alimta]
[2]
  G0/G1 (cell cycle phase distribution): 62.4%
  G2/M (cell cycle phase distribution): 7.2%
  S (cell cycle phase distribution): 30.4%
  SubG1 (cell cycle phase distribution): 20.9%
A549 lung cancer cells
  G0/G1 (cell cycle phase distribution): 58.4%
  G2/M (cell cycle phase distribution): 5.3%
  S (cell cycle phase distribution): 36.3%
  SubG1 (cell cycle phase distribution): 45%

## N.N.[Cl][Pt][Cl] [Cisplatin]
[3]
  proliferation of MDA-MB-231 breast cancer sphere cells: relatively resistant
[4]
  G0/G1 (cell cycle phase distribution): 48.5%
  G2/M (cell cycle phase distribution): 6.1%
  S (cell cycle phase distribution): 45.4%
  SubG1 (cell cycle phase distribution): 11.7%

## CC(=O)O[C@@]12CO[C@@H]1C[C@H](O)[C@@]1(C)C(=O)[C@H](O)C3=C(C)[C@@H](OC(=O)[C@H](O)[C@@H](NC(=O)OC(C)(C)C)c4ccccc4)C[C@@](O)([C@@H](OC(=O)c4ccccc4)[C@H]21)C3(C)C [Docetaxel]
[3]
  proliferation of MDA-MB-231 breast cancer sphere cells: moderate sensitivity to Docetaxel
[5]
  MDA-MB-231 cell proliferation: provided a reduction in proliferation

## COc1cc2ncnc(Nc3ccc(F)c(Cl)c3)c2cc1OCCCN1CCOCC1 [Iressa]
HCC827Gr cells [6]
  colony formation by HCC827Gr cells: Significant colony formation
AXL
  AXL expression: had no effect
Lung cancer cells [7]; FIG. 16
  tumor weight: only a marginal reduction in tumor weight
Lung cancer cells [7]; FIG. 16 top right panel
  tumor weight distribution: most of the mice having >6 gram tumors
[8]; HCC827Gr cells, FIG. 57-58
  reduction in cell proliferation: ≤ 20%
[8]; Homo sapiens, read-out: proliferation, % of control values
  activity at 1 µM: ~80%
HCC827Gr cells [9]
  number of viable resistant HCC827Gr cells: does not significantly decrease the number of viable resistant HCC827Gr cells
[10]
  G0/G1 (cell cycle phase distribution): 76.1%
  G2/M (cell cycle phase distribution): 18.9%
  S (cell cycle phase distribution): 4.9%
  SubG1 (cell cycle phase distribution): 1.51%
PD-1
  PD-1 expression in T cells: marginally reduced
A549 sphere cells
  proliferation of A549 sphere cells: relatively resistant to treatment with Iressa

## C#Cc1cccc(Nc2ncnc3cc(OCCOC)c(OCCOC)cc23)c1 [Tarceva]
Lung cancer cells [11]
  metastasis of tumor cells from the implantation site: reduced to some extent
Implanted tumor
  tumor weight distribution, large (>5 g) tumors: still showed a significant number of such large tumors
IL-6
  IL-6 expression in tumors: can actually increase expression of such gene products
[2]
  G0/G1 (cell cycle phase distribution): 58.3%
  G2/M (cell cycle phase distribution): 8.9%
  S (cell cycle phase distribution): 32.7%
  SubG1 (cell cycle phase distribution): 42.8%
A549 lung cancer cells
  G0/G1 (cell cycle phase distribution): 70.9%
  G2/M (cell cycle phase distribution): 14.8%
  S (cell cycle phase distribution): 14.2%
  SubG1 (cell cycle phase distribution): 5.9%
[12]
  loss of white adipose tissue (WAT), brown adipose tissue (BAT), and muscle mass (gastroc): only slightly relieved
PD-1
  PD-1 expression in T cells: marginally reduced
PTHrP
  PTHrP expression: can actually increase expression of such gene products
A549 sphere cells
  proliferation of A549 sphere cells: similarly resistant to Tarceva

## CC(=O)O[C@H]1C(=O)[C@@]2(C)[C@H]([C@H](OC(=O)c3ccccc3)[C@]3(O)C[C@H](OC(=O)[C@H](O)[C@@H](NC(=O)c4ccccc4)c4ccccc4)C(C)=C1C3(C)C)[C@]1(OC(C)=O)CO[C@@H]1C[C@@H]2O [Taxol, paclitaxel]
[1]
  number of Ki-61 positive cells (proliferative index): reduces the number of positive cells
Breast cancer cells
  metastatic tumor load in the mammary glands: modest reduction in tumor loading of mammary glands
p-AXL
  p-AXL content of the tumor: reduces p-AXL expression
UCP-1
  expression of UCP-1: decreased somewhat
HSP90
  HSP90 expression in tumor samples: minimal impact on HSP90 expression
ATGL
  expression of ATGL: decreased somewhat
Cytochrome C
  Cytochrome C: little to no increase
PTHrP
  PTHrP expression: actually increased expression when used alone
[13]
  blood vessels associated with the tumors: reduce the number of blood vessels associated with the tumor and also reduce their diameter

## Avastin: chemotherapeutic drug commonly used to treat breast cancer
p-AXL
  p-AXL content of the tumor: little to no apparent reduction in p-AXL expression
HSP90
  HSP90 expression in tumor samples: reduced to some extent
